Results as given in patent US20210017607A1, “Methods of Predicting Responsiveness to Cancer Therapies” (The University of Chicago, priority 2019, published 2021).

What was measured:
[1] = system: Myc-CAP-PTEN^−/− tumors; assay: Myc-CAP-PTEN−/− syngeneic tumors in vivo (growth, flow cytometry); set-up: species or system mouse
Protocol: FIGS. 35A-35D. […] (35A) Myc-CAP-PTEN^−/− cells were treated with copanlisib […] (IC90 concentration) in vitro for 24 hours, and protein extracts were harvested for western blotting analysis with the indicated antibodies to analyze PI3K activation. (35B) Supernatants from (35A) were harvested for cytokine array profiling. n=3 independent in vitro experiments. (35C) Mice bearing Myc-CAP-PTEN^−/− established syngeneic tumors (200 mm^3) were treated with copanlisib (14 mg/kg, every other day, until tumors reached 2000 mm^3). Tumor volumes were monitored daily and graphed. (35D) At the end of treatment, tumors were analyzed by flow cytometry for tumor infiltrating immune cell subsets. n=5 mice per group.
FIGS. 37A and 37B. Myc-CAP-PTEN deficient cancers are resistant to ADT/PARPi/PI3Ki/combination due to an absence of macrophage infiltration/activation and secondary CD8/CD4 T cell infiltration following treatment. Syngeneic PTEN-proficient and PTEN-deficient Myc-CAP mice were treated with a single dose of degarelix, rucaparib (PARP inhibitor), BKM120 (pan-PI3K inhibitor), or anti-PD-L1 antibody, singly and in combination for 3 weeks. (37A) Tumor volumes were monitored, as indicated. (37B) Tumors were harvested at the end of treatment and macrophage infiltration and activation (upper left and right panels), and CD4 and CD8 T cell infiltration (lower left and right panels, respectively) were analyzed by flow cytometry. n=3 animals/group.
FIG. 44. […] Syngeneic mice bearing established PTEN-proficient (PTEN^+/+) and PTEN-deficient (PTEN^−/−) Myc-CAP tumors (200 mm^3) were treated with DMXAA ([…] intra-tumoral dose) for 12 days. Tumor volumes were monitored daily and graphed relative to untreated groups. n=3-5 mice per group.
(§1) FIGS. 45A and 45B. […] Syngeneic mice bearing established PTEN-proficient (PTEN^+/+) and PTEN-deficient (PTEN^−/−) Myc-CAP tumors (200 mm^3) were treated with DMXAA (500 μg, single intra-tumoral dose) for 12 days. The harvested tumors were analyzed by flow cytometry for CD45 (45A) and tumor infiltrating immune cell subsets (45B). n=3-5 mice per group.
FIGS. 46A-46C. […] Syngeneic mice bearing established PTEN-proficient (PTEN^+/+) or PTEN-deficient (PTEN^−/−) Myc-CAP tumors (200 mm^3) were treated with DMXAA (500 μg, single intra-tumoral dose) for 12 days. The harvested tumors were analyzed by flow cytometry for activation status of immune cells: (46A) MHC-II/PD-L1 expression on macrophages; (46B) 41bb/PD-1 expression on CD4+FoxP3-T-cells and (46C) on CD8+T-cells. n=3-5 mice per group.
as §1, with “FIG. 47.” for “FIGS. 45A and 45B.”, “CD4+T-cells subsets, specifically FoxP3+” for “CD45 (45A)”, “FoxP3− fractions.” for “tumor infiltrating immune cell subsets (45B).”
In vivo drug efficacy studies using murine tumor models. Wild-type (WT) C57BL/6J, FVB/NJ mice were purchased from Jackson laboratories and mice were kept in an AALAC (American Association for the Accreditation of Laboratory Animal Care) certified barrier facility at the University of Chicago. Animal work was carried out according to approved IACUC (Institutional Animal Care and Use Committee protocols). For Myc-CAP cell line based experiments, mice aged 8-10 weeks were engrafted with 1 million cells re-suspended in 1×PBS, under anesthesia. Treatments were started when tumor volumes reached approximately 250-400 mm^3, and mice were randomly allocated to treatment groups as indicated. Tumor volume was calculated using the formula: 0.5×longest diameter×(shortest diameter)^2. Euthanasia was performed for tumor ulceration and/or tumor diameter >2 cm, as per IACUC-approved protocol. All in vivo treatments were done for 20-23 days and tumor volume measurements were collected on a daily basis. For ID8 tumors, the weights (gm) as well as the abdominal girth (mm) measurements were recorded daily. […]

[2] = system: PTEN/p53-deficient GEMM tumors; assay: PTEN/p53-deficient GEMM in vivo immune profiling; set-up: species or system mouse; settings: for CD4 and CD8 T-cell infiltration / Gr-MDSC and Tregs: copanlisib 14 mg/kg/day every alternate day, 4 weeks
Protocol: FIGS. 48A and 48B. […] PTEN/p53-deficient GEMM mice with established tumors were treated with DMXAA every other day for 14 days. Tumors were harvested and subjected to flow cytometry for detection of the indicated markers. (48A) CD8 infiltration; (48B) M1/M2 ratio of F4/80^+ cells where M1 are defined as MHC-II^+ and M2 cells are MHC-II^−. The frequency of Gr-MDSCs (Ly6C^−Ly6G^+) and surface expression of V-domain Ig suppressor of T cell activation (VISTA) and PD-L1 on Gr-MDSCs are shown.
FIGS. 71A and 71B. […] PTEN/p53-deficient GEMM mice (n=2/group) with established tumors were treated with copanlisib (14 mg/kg/day, every alternate day) for 4 weeks. Tumors were collected and analyzed for changes in global immune infiltrates, shown clockwise from twelve o'clock: CD4+, CD8+, CD19+, F4/80+, CD11c+, Mo-MDSC, Gr-MDSC, neutrophils (71A) and Treg frequency (71B) by flow cytometry. n=2 mice per arm.
Flow Cytometry. Murine tumors: Murine tumors were processed into single cell suspensions via gentle mechanical dissociation in 6 well plates containing 1 mL of 10% RPMI media supplemented with 10% fetal bovine serum, 1% penicillin-streptomycin and 2% L-glutamine. Cell suspensions were centrifuged at 500×g for 5 minutes at 4° C. and were passed through a 70-micron mesh, prior to re-suspension in FACS buffer (1×PBS containing 0.5% FBS and 0.01% sodium azide). For the stain, one million cells resuspended in 1×FACS buffer, were incubated with titrated concentrations of anti-mouse antibodies (Biolegend®), namely, CD45, CD11b, CD11c, CD19, F480,Ly6G, Ly6C, PD-L1, VISTA, I-A^e/IA^b, H-2K^b, CD3, CD4, CD8, 4-1BB, ICOS, and PD-1. Incubation with antibodies was done at 4° C. for 30-40 minutes. Following staining, cells were washed twice with 1× FACS buffer and fixed with 300 microliters of 4% paraformaldehye (Fisher Scientific®). Intracellular stains were done following fixation and permeabilization by staining with anti-mouse FOXP3 (Biolegend®) as per manufacturer's protocol. Analysis of cellular stains were done using BD instrument LSR 4-15 Fortessa™. Data files collected using BDFACSDIVA software were analyzed using FlowJo® software (Tree Star).

[3] = DMXAA 500 μg single intra-tumoral dose, 12 days
[4] = relative to PTEN-proficient counterparts
[5] = DMXAA every other day for 14 days
[6] = copanlisib 14 mg/kg every other day

## Cc1ccc2c(=O)c3cccc(CC(=O)O)c3oc2c1C [DMXAA, 5,6-Dimethylxanthenone-4-acetic Acid]
[1]; [3]
  Gr-MDSCs: trend towards decreasing Gr-MDSCs
  global immune infiltration (CD45): increases global immune infiltration
[1]; DMXAA single intra-tumoral dose, 12 days
  tumor responsiveness of PTEN-deficient relative to PTEN-proficient Myc-CAP tumors: more responsive
[1]; PTEN-deficient prostate cancer murine models (Example 1)
  response of PTEN-deficient prostate cancers to direct STING agonist: resistant
[1]; [4]
  macrophage, CD4 and CD8 T-cell activation: selectively increases macrophage, CD4 and CD8 T-cell activation
  regulatory T-cell infiltration: increases regulatory T-cell infiltration
[2]; [5]
  CD8 T cell infiltration: increases CD8 T cell infiltration
  myeloid immunosuppression: relieves myeloid immunosuppression
[2]; DMXAA, PTEN/p53 GEMM mice
  MDSC infiltration: decreased MDSC infiltration
  VISTA and PD-L1 checkpoint expression on MDSCs: reduction
[2]; Myc-CAP-PTEN knockout and PTEN/p53-deficient GEMM tumors
  myeloid reprogramming and Type I interferon production within the TME: myeloid reprogramming and Type I interferon production
[2]; after DMXAA
  TIL exhaustion markers: decreased 4-1BB, decreased ICOS and increased PD-1

## COc1c(OCCCN2CCOCC2)ccc2c1N=C(NC(=O)c1cnc(N)nc1)N1CCN=C21 [copanlisib]
[1]; [6]
  MDSC infiltration: decreasing
  tumor growth: retards growth
[2]
  CD4 and CD8 T-cell infiltration: striking increase
  Gr-MDSC and Tregs: depletion
[2]; listed as Copanlisib
  CD4 and CD8 T-cell infiltration: increases CD4 and CD8 T-cell infiltration
  Gr-MDSC and Tregs: decreases Gr-MDSC and Tregs
